The nature of the first data set: method code SF-AS, from DOI: 10.1021/jf00085a044.
The logP is a log measure of how a compound divides between an organic and an aqueous phase. The low end stands for lower lipophilicity, the high end for higher lipophilicity. Turning to `CCOC(=O)Cn1nnnc1Oc1ccc(NC(=O)N(C)C)cc1`, the logP stood at 0.7.
Same read-out and setting: in the case of `CCn1nnc(Oc2ccc(NC(=O)N(C)C)cc2)n1` it was 1.1.
Still for that read-out and setting: with `CN(C)C(=O)Nc1ccc(Oc2nnn(CCC#N)n2)cc1` the figure was 0.28.
Take `CCCCCCCCn1nnnc1Oc1ccc(NC(=O)N(C)C)cc1`: the logP was found to be 3.96.
On the same count and under the same terms, with `CN(C)C(=O)Nc1ccc(Oc2nnn(C(C)(C)C)n2)cc1` the figure was 2.08.
As for `CN(C)C(=O)Nc1ccc(Oc2nnnn2C2CCCCC2)cc1`, the logP stood at 2.18.
Still for that read-out and setting: with `CN(C)C(=O)Nc1ccc(Oc2nnn(C3CCCCC3)n2)cc1` the figure was 2.67; with `CN(C)C(=O)Nc1ccc(Oc2nnn(C)n2)cc1`, 0.63; with `CCn1nnnc1Oc1ccc(NC(=O)N(C)C)cc1Cl`, 1.5.

Assay in a further data set: not given
With `CN(C)C(=O)Nc1ccc(Oc2nnnn2Cc2ccccc2)cc1`, the logP stood at 1.7.
On the same count and under the same terms, with `CC(C)n1nnc(Oc2ccc(NC(=O)N(C)C)cc2)n1` the figure was 1.45; with `CN(C)C(=O)Nc1ccc(Oc2nnnn2C(C)(C)C)c(Cl)c1`, 2.25.
Same read-out and setting: with `CN(C)C(=O)Nc1ccc(Oc2nnnn2C(C)(C)C)cc1` the figure was 1.65; with `C=CCn1nnnc1Oc1ccc(NC(=O)N(C)C)cc1`, 1; with `CCn1nnc(Oc2ccc(NC(=O)N(C)C)cc2Cl)n1`, 1.7.
Still for that read-out and setting: with `C#CCn1nnc(Oc2ccc(NC(=O)N(C)C)cc2)n1` the figure was 1.65.
`CN(C)C(=O)Nc1ccc(Oc2nnn(Cc3ccccc3)n2)cc1` had a logP of 2.25.
`C#CCn1nnnc1Oc1ccc(NC(=O)N(C)C)cc1` came in with a logP of 1.
Still for that read-out and setting: in the case of `C=CCn1nnc(Oc2ccc(NC(=O)N(C)C)cc2)n1` it was 1.65; in that of `CCCCCCCCn1nnc(Oc2ccc(NC(=O)N(C)C)cc2)n1`, 4.4.

Source of the values: the SangsterLogP compilation.
